Data published in US10253081B2, “Glucagon analogues” (Zealand Pharma A/S, priority 2012, dated 2019).
*1 amine or outer side, *2 acyl side, *3 side chain or, on linkers, in order; H or OH if unused. Where a SMILES comes first, the peptide text is derived from it. Side-chain parts run from the residue outwards. [ ]: non-standard residue; d: D form. The star is where a group is joined. γGlu = O=C(O)[C@H](CCC(=O)[*:2])N[*:1]; Palmitoyl = CCCCCCCCCCCCCCCC(=O)*; Aib = CC(C)(N)C(=O)O

Tests used:
Format in all cases: cell-based
[1] = target: T1, human glucagon receptor (Glucagon-R) (Homo sapiens, UniProt P47871); assay: Glucagon receptor efficacy assay (cAMP AlphaScreen, CHO cells); details: Table 1B; same protocol, different laboratory; read-out: EC50 hGCGR CHO-K1
T1 construct: expressed in transfected cells
T1 sequence (P47871 26-477): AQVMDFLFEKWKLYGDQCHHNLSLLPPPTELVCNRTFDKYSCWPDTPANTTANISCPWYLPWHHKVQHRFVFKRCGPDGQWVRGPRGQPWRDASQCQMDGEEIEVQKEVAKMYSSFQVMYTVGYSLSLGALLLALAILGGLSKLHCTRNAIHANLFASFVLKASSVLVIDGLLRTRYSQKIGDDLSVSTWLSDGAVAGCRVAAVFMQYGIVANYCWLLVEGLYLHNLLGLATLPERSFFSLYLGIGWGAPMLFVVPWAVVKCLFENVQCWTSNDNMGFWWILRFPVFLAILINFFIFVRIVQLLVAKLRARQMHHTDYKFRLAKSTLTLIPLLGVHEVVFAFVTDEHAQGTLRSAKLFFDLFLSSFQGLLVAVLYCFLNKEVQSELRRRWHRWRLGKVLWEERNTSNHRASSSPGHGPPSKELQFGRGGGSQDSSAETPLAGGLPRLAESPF
From the text: (§1) The cDNA encoding either the human glucagon receptor (Glucagon-R) (primary accession number P47871) or the human glucagon-like peptide 1 receptor (GLP-1R) (primary accession number P43220) were synthesized and cloned into a mammalian expression vector containing a Zeocin resistance marker.
(§2) The mammalian expression vectors encoding the Glucagon-R or the GLP-1-R were transfected into Chinese hamster ovary (CHO) cells by the Attractene method method. Stably expressing clones were obtained by Zeocin selection (250 μg/mL) upon limited dilution of cells resistant to the selection pressure. Glucagon-R and GLP-1-R cell clones expressing were picked, propagated and tested in the Glucagon-R and GLP-1-R efficacy assays as described below. One Glucagon-R expressing clone and one GLP-1-R expressing clone were chosen for compound profiling.
(§3) CHO cells expressing the human Glucagon-R, or human GLP-1-R were seeded 24 hours prior to the assay at 30,000 cells per well in 96-well microtiter plates in culture in 100 μl growth medium. On the day of analysis, growth medium was removed and the cells were washed once with 200 μl of assay buffer (Krebs-Ringer-buffer—KRBH). The buffer was removed and the cells were incubated for 15 min at room temperature in 10 μl KRBH (KRBH+10 mM HEPES, 5 mM NaHCO3, 0.1% (V/V) BSA) with 0.1 mM IBMX in deionized water containing increasing concentrations of test peptides. The reaction was stopped by the addition of lysis buffer (0.1% w/v BSA, 5 mM HEPES, 0.3% v/v Tween-20). After cell lysis for 10 min at room temperature, lysates were transferred to 384-well plates and 10 μl of acceptor/donorbead mixture as contained in the AlphaScreen™ cAMP Functional Assay Kit was added. After one hour of incubation at room temperature in the dark, the cAMP content was determined applying the AlphaScreen™ cAMP Functional Assay Kit from Perkin-Elmer according to manufacturer instructions. EC50 and relative efficacies compared to reference compounds (glucagon and GLP-1) were calculated applying computer aided curve fitting. The GLP-1/glucagon ratio is calculated as defined earlier.

[2] = target: T2, human glucagon-like peptide 1 receptor (GLP-1R) (Homo sapiens, UniProt P43220); assay: GLP-1 receptor efficacy assay (cAMP AlphaScreen, CHO cells); details: Table 1B; for Ratio GLP-1/Glucagon: EC50 [GLP-1R]/EC50 [Glucagon-R]; for EC50: same protocol, different laboratory, read-out: EC50 hGLP-1R CHO-K1
T2 construct: expressed in transfected cells
T2 sequence (P43220 24-463): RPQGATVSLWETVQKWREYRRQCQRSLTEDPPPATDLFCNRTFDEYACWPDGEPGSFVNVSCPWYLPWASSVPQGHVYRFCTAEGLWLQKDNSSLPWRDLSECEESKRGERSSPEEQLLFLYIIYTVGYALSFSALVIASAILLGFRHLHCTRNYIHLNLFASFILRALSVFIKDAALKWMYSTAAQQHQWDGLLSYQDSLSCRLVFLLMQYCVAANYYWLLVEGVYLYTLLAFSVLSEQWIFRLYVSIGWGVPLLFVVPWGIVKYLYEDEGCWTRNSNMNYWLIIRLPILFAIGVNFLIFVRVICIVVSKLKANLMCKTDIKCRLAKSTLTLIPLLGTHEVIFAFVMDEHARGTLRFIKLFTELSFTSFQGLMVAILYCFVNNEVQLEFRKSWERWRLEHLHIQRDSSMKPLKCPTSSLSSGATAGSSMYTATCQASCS
From the text: as §1, §2, §3

[3] = target: T3, endogenous GLP-1 receptors (Mus musculus, UniProt O35659); assay: Agonistic activity on endogenous GLP-1 receptor (cAMP, murine insulinoma cell line); details: intracellular cAMP, 15 minutes at 26° C.; read-out: EC50 GLP-1R (murine insulinoma cells)
T3 construct: Agonistic activity of the test compounds on endogenous GLP-1 receptors; endogenous in cells
T3 sequence (O35659 22-463): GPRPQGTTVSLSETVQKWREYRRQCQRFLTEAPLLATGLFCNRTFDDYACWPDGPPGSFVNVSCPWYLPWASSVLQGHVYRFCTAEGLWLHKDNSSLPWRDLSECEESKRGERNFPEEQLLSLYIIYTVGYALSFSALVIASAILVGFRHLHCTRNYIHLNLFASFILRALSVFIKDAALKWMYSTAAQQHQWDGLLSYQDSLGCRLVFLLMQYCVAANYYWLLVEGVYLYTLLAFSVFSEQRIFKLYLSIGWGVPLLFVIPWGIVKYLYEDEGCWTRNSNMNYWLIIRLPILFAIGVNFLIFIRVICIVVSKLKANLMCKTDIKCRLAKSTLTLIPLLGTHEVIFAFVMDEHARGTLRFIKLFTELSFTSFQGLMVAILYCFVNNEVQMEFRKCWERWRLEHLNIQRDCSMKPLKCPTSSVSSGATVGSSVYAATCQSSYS
Protocol: Agonistic activity of the test compounds on endogenous GLP-1 receptors was determined using a murine insulinoma cell line. Intracellular cAMP was used an indicator of receptor activation.
Cells were cultured for 24 h at a density of 10,000 cells/well in a 384-well plate. Medium was removed and 10 μL KRBH buffer (NaCl 130 mM, KCl 3.6 mM, NaH2PO4 0.5 mM, MgSO4 0.5 mM, CaCl2) 1.5 mM) containing test compound or GLP-1 (at increasing concentrations from […] to 100 nM) or solvent control (0.1% (v/v) DMSO) was added to the wells for 15 minutes at a temperature of 26° C.
The cellular cAMP content is measured using the AlphaScreen cAMP Functional Assay Kit (Perkin Elmer). Measurement was performed using the Envision (PerkinElmer) according to manufacturer's recommendations.
All measurements were performed in quadruplicate.
Results were converted into cAMP concentrations using a cAMP standard curve prepared in KRBH buffer containing 0.1% (v/v) DMSO. The resulting cAMP curves were plotted as absolute cAMP concentrations (nM) over log (test compound concentration) and analyzed using the curve fitting program XLfit.
Parameters calculated to describe the both the potency as well as the agonistic activity of each test compound on the endogenous GLP-1 receptors were:
pEC50 (negative logarithmic value of EC50, a concentration resulting in a half-maximal elevation of cAMP levels, reflecting the potency of the test compound);
Percent control (% CTL)(% cAMP elevation for each test compound concentration normalized based on the GLP-1-induced maximum cAMP response (100% CTL)).

[4] = target: T4, endogenous glucagon receptor (Rattus norvegicus, UniProt P30082); assay: Agonistic activity on endogenous glucagon receptor (glycogen synthesis rate in primary rat hepatocytes); details: inhibition of glycogen synthesis rate, 3 hours, read-out: EC50 GLP-1R Rat hepat.
T4 construct: Agonistic activity of the test compounds on endogenous glucagon receptor; endogenous in cells; host or cells: primary rat hepatocytes
T4 sequence (P30082 27-485): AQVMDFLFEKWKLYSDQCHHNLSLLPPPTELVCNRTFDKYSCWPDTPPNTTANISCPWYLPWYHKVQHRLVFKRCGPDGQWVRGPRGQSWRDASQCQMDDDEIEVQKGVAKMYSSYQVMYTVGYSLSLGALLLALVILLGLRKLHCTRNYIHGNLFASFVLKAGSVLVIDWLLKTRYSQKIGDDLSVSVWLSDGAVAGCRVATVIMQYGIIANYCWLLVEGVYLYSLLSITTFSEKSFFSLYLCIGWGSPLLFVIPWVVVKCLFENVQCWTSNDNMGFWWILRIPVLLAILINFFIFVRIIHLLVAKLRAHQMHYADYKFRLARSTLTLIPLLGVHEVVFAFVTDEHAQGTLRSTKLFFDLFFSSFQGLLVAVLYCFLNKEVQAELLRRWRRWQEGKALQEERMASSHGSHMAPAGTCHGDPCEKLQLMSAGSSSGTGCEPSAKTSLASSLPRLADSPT
Protocol: Agonistic activity of the test compounds on endogenous glucagon receptor was determined by measuring their effect on rate of glycogen synthesis in primary rat hepatocytes. Upon activation of the glucagon receptor, an inhibition of the glycogen synthesis rate is expected. Rate of glycogen synthesis was determined by counting the amount of radioactively labeled glucose incorporated into the cellular glycogen stores in a defined period of time.
Primary rat hepatocytes were cultured at a density of 40,000 cells/well in a 24-well plate for 24 hours at 37° C. and 5% CO2.
Medium was discarded and the cells washed with PBS. 180 μL of KRBH-based buffer containing 0.1% BSA and glucose at a concentration of 22.5 mM was then added to the wells, followed by test compound and 40 μCi/ml D-[U14C] glucose (20 μL each). Incubation was continued for 3 hours.
At the end of the incubation period, the incubation buffer was aspirated and cells washed once with ice-cold PBS before lysis by incubation for 30 min at room temperature with 100 μL 1 mol/l NaOH.
Cell lysates were transferred to 96-well filter plates and glycogen precipitated by incubating the filter-plates for 120 min at 4° C. followed by washing the filter plates 4 times with ice-cold ethanol (70%). The resulting precipitates were filtered to dryness and the amount of incorporated ^14C-glucose determined by using a Topcount scintillation counter according to manufacturer's recommendations.
Wells with vehicle controls (0.1% (v/v) DMSO in KRBH buffer) were included as reference for non-inhibited glycogen synthesis (100% CTL). Wells without added D-[U^14C] glucose were included as controls for non-specific background signal (subtracted from all values). Endogenous glucagon peptide was used as a positive control.
All treatments were performed at least in triplicates.
Parameters calculated to describe the both the potency as well as the agonistic activity of each test compound on the endogenous glucagon receptor are pEC50 and % CTL. % CTL is determined by calculating the percentage of CPM/well in the presence of the test compound compared to the CPM/well of the vehicle control after subtracting the background CPM/well: [CPM/well(basal)−CPM/well(sample)]*100/[CPM/well(basal)−CPM/well(control)]
An activator of the glucagon receptor will result in an inhibition of the glycogen synthesis rate and will give % CTL values between 0% CTL (complete inhibition) and 100% CTL (no observable inhibition).
The resulting activity curves were plotted as absolute counts (unit: cpm/sample) over log (test compound concentration) and analyzed using the curve fitting program XLfit.
pEC50 (negative logarithmic value of EC50) reflects the potency of the test compound.
The terms EC50 and pEC50 quoted in relation to GLP-1R activation could equally be regarded as IC50 and pIC50 in relation to glycogen synthesis.

Structure (SMILES): CCCCCCCCCCCCCCCC(=O)N[C@@H](CCC(=O)NCCCC[C@H](NC(=O)[C@H](CCC(=O)O)NC(=O)[C@H](CCC(=O)O)NC(=O)[C@H](CC(C)C)NC(=O)[C@H](Cc1ccc(O)cc1)NC(=O)[C@H](CCCCN)NC(=O)[C@H](CO)NC(=O)[C@H](Cc1ccc(O)cc1)NC(=O)[C@H](CC(=O)O)NC(=O)[C@H](CO)NC(=O)[C@@H](NC(=O)[C@H](Cc1ccccc1)NC(=O)[C@@H](NC(=O)CNC(=O)[C@H](Cc1c[nH]cn1)NC(=O)[C@H](CO)NC(=O)[C@@H](N)Cc1c[nH]cn1)[C@@H](C)O)[C@@H](C)O)C(=O)N[C@@H](C)C(=O)N[C@@H](C)C(=O)N[C@@H](Cc1c[nH]cn1)C(=O)N[C@@H](CCC(=O)O)C(=O)N[C@@H](Cc1ccccc1)C(=O)N[C@H](C(=O)N[C@@H](CCC(=O)O)C(=O)N[C@@H](Cc1c[nH]c2ccccc12)C(=O)N[C@@H](CC(C)C)C(=O)N[C@@H](CCC(=O)O)C(=O)N[C@@H](CO)C(=O)N[C@@H](C)C(=O)O)[C@@H](C)CC)C(=O)O [Compound 18, H-HSHGTFTSDYSKYLEE-K(Hexadecanoyl-isoGlu)-AAHEFIEWLESA-OH] (H-HSHGTFTSDYSKYLEEK([γGlu-Palmitoyl])AAHEFIEWLESA-OH)
- EC50 [1]: 0.14 nM
- Ratio GLP-1/Glucagon [2]: 6.2
- EC50 [2]: 0.87 nM
- EC50 [3]: 0.99 nM
- EC50 [4]: 0.18 nM

Structure (SMILES): CCCCCCCCCCCCCCCC(=O)N[C@@H](CCC(=O)NCCCC[C@H](NC(=O)[C@H](CO)NC(=O)[C@H](CCC(=O)O)NC(=O)[C@H](CC(C)C)NC(=O)[C@H](Cc1ccc(O)cc1)NC(=O)[C@H](CCCCN)NC(=O)[C@H](CO)NC(=O)[C@H](Cc1ccc(O)cc1)NC(=O)[C@H](CC(=O)O)NC(=O)[C@H](CO)NC(=O)[C@@H](NC(=O)[C@H](Cc1ccccc1)NC(=O)[C@@H](NC(=O)CNC(=O)[C@H](CCC(N)=O)NC(=O)C(C)(C)NC(=O)[C@@H](N)Cc1c[nH]cn1)[C@@H](C)O)[C@@H](C)O)C(=O)N[C@@H](C)C(=O)N[C@@H](C)C(=O)N[C@@H](CCC(=O)O)C(=O)N[C@@H](CC(=O)O)C(=O)N[C@@H](Cc1ccccc1)C(=O)N[C@H](C(=O)N[C@@H](CCC(=O)O)C(=O)N[C@@H](Cc1c[nH]c2ccccc12)C(=O)N[C@@H](CC(C)C)C(=O)N[C@@H](CCC(=O)O)C(=O)N[C@@H](CO)C(=O)N[C@@H](C)C(N)=O)[C@@H](C)CC)C(=O)O [Compound 21, H-H-Aib-QGTFTSDYSKYLES-K(Hexadecanoyl-isoGlu)-AAEDFIEWLESA-NH2] (H-H[Aib]QGTFTSDYSKYLESK([γGlu-Palmitoyl])AAEDFIEWLESA-NH2)
- EC50 [1]: 1.32 nM
- Ratio GLP-1/Glucagon [2]: 0.09
- EC50 [2]: 0.12 nM
- EC50 [3]: 0.3 nM
- EC50 [4]: 3.4 nM

Structure (SMILES): CCCCCCCCCCCCCCCC(=O)N[C@@H](CCC(=O)NCCCC[C@H](NC(=O)[C@H](CO)NC(=O)[C@H](CCC(=O)O)NC(=O)[C@H](CC(C)C)NC(=O)[C@H](Cc1ccc(O)cc1)NC(=O)[C@H](CCCCN)NC(=O)[C@H](CO)NC(=O)[C@H](Cc1ccc(O)cc1)NC(=O)[C@H](CC(=O)O)NC(=O)[C@H](CO)NC(=O)[C@@H](NC(=O)[C@H](Cc1ccccc1)NC(=O)[C@@H](NC(=O)CNC(=O)[C@H](CCC(N)=O)NC(=O)C(C)(C)NC(=O)[C@@H](N)Cc1c[nH]cn1)[C@@H](C)O)[C@@H](C)O)C(=O)N[C@@H](C)C(=O)N[C@@H](C)C(=O)N[C@@H](Cc1c[nH]cn1)C(=O)N[C@@H](CC(=O)O)C(=O)N[C@@H](Cc1ccccc1)C(=O)N[C@H](C(=O)N[C@@H](CCC(=O)O)C(=O)N[C@@H](Cc1c[nH]c2ccccc12)C(=O)N[C@@H](CC(C)C)C(=O)N[C@@H](CCC(=O)O)C(=O)N[C@@H](CO)C(=O)N[C@@H](C)C(N)=O)C(C)C)C(=O)O [Compound 23, H-H-Aib-QGTFTSDYSKYLES-K(Hexadecanoyl-isoGlu)-AAHDFVEWLESA-NH2] (H-H[Aib]QGTFTSDYSKYLESK([γGlu-Palmitoyl])AAHDFVEWLESA-NH2)
- EC50 [1]: 0.25 nM
- Ratio GLP-1/Glucagon [2]: 0.52
- EC50 [2]: 0.13 nM
- EC50 [3]: 0.31 nM
- EC50 [4]: 1.32 nM
